Values quoted from earlier work in US20090306027A1 (priority 2006, published 2009).
Where a name gives a salt, the structure may show the parent alone.

| SMILES | solubility in organic solvents (organic solvents such as ethanol, ether and chloroform) | solubility in water | solubility in alcohol (alcohol) | solubility in ether (ether) |
| --- | --- | --- | --- | --- |
| O=[N+]([O-])O[C@H]1CO[C@H]2[C@@H]1OC[C@H]2O[N+](=O)[O-] [Diluted isosorbide dinitrate, 1,4,3,6-dianhydro-D-glucitol-2,5-dinitrate] | freely soluble | sparingly soluble |  |  |
| NNc1nncc2ccccc12 [Hydralazine hydrochloride, hydralazine hydrochloride] |  | soluble | slightly soluble | very slightly soluble |
